Laboratory results taken from US6740645B1, “17β-acyl-17α-propynyl-11β-(cyclic amino) aryl steroids and their derivatives having antagonist hormonal properties” (Research Triangle Institute, priority 1999, dated 2004).

Test system: rabbit uterus
Assay: anti-McGinty test for antiprogestational activity (McPhail Index)
Type: in vivo
Conditions: for McPhail Index: estrogen-primed immature female rabbits, n = 3
Method: Biological activity was examined by means of the anti-McGinty test for antiprogestational activity. Immature female rabbits weighing 1000 to 1100 grams were primed with estrogen (5 μg of estradiol in sesame oil as vehicle, given subcutaneously) for 6 days, followed by a surgical procedure to introduce the test compounds into the uterine horn [see for example Teruhiko Tamaya, et al., Local progestational and antiprogestational effects of steroids and their metabolites on the rabbit uterus. Japanese Journal of Fertility and Sterility 24:48-51 (1979)]. A single dose of test compound in sesame oil as vehicle, accompanied by a single dose of progesterone (0.3 μg in sesame oil as vehicle) was given. On the third day (dosing being day one) the animals were sacrificed. The uteri were then removed, weighed and a section was kept in 10% formalin for microslide preparation for McPhail Index [M. K. McPhail, The Journal of Physiology, 83: 10 (1934)] determination. […] Antiprogestational compounds should block the effect of progesterone on the McPhail Index, which is zero in the absence of progesterone.

[1] = total dose 0.3 (μg) of test compound + progesterone 0.3 μg, single dose into uterine horn
[2] = total dose 3 of test compound + progesterone 0.3 μg, single dose into uterine horn
[3] = total dose 30 of test compound + progesterone 0.3 μg, single dose into uterine horn

Row | Compound | antiprogestational effect (in words) (0.3 μg dose, anti-McGinty test) | antiprogestational potency compared with RTI-6617-048 and RTI-6617-040 (in words) (anti-McGinty test, Table 1) | McPhail Index [1] | McPhail Index [2] | McPhail Index [3] | McPhail Index (progesterone (P) alone, total dose 0.3 (μg), uterine horn)
1 | CC#CC1(C(C)=O)CCC2C3CCC4=CC(=O)CCC4=C3C(c3ccc(N4CCCCC4)cc3)CC21C (stereo not drawn) [RTI-6617-041, 11β-[4-(N-piperidino)phenyl]-17α-(1-propynyl)-19-norpregna-4,9-diene-3,20-dione] | marked effect | markedly more potent | 0.78 +/− 0.21 | 0.0 +/− 0.0 | 0.0 +/− 0.0 | 
2 | CC#C[C@]1(C(C)=O)CC[C@H]2[C@@H]3CCC4=CC(=O)CCC4=C3[C@@H](c3ccc(N(C)C)cc3)C[C@@]21C [RTI-6617-040, 11β-[4-(N,N-Dimethylamino)phenyl]-17α-(1-propynyl)-19-norpregna-4,9-diene-3,20-dione] |  |  | 1.83 +/− 0.36 | 0.0 +/− 0.0 | 0.0 +/− 0.0 | 
3 | CC(=O)[C@H]1CC[C@H]2[C@@H]3CCC4=CC(=O)CC[C@]4(C)[C@H]3CC[C@]12C [Progesterone, progesterone] |  |  |  |  |  | 2.2 +/− 0.3
4 | C#CC1(C(C)=O)CCC2C3CCC4=CC(=O)CCC4=C3C(c3ccc(N4CCCCC4)cc3)CC21C (stereo not drawn) [RTI-6617-048, 11β-[4-(N-Piperidino)phenyl]-17α-ethynyl-19-norpregna-4,9-diene-3,20-dione] |  |  | 1.94 +/− 0.31 | 0.89 +/− 0.3 | 0.0 +/− 0.0 | 
